The text below walks through data of patent US11045519B2, “Arginine-rich polypeptide compositions and methods of using same” (UNM Rainforest Innovations, priority 2017, dated 2021).

Assay type in all cases: cell-based
Assay [1] has as its system HPV16 PsVs. Kind of assay: HPV16 PsV binding to CHO mutant cells (L1 immunoblot). The following applies: 3 μM, 30 min pre-treatment. As for the experimental part: (§1) FIG. 7. HPV binding and infection of CHO mutant cells in the presence of polyR. CHO mutant pgsA-745 cells (GAG deficient) and CHO mutant pgsD-677 cells (HS deficient) were grown in Ham's F12 medium supplemented with 10% fetal bovine serum and 1% Glutamax (Invitrogen, Thermo Fisher Scientific, Inc., Carlsbad, Calif.). (A) Cells were incubated with 3 μM polyR in the medium for 30 minutes before adding HPV16 PsVs and incubating at 4° C. for one hour. After extensive washing with PBS, cells were lysed and analyzed for the content of L1, as described in FIG. 4A. (B) Semi-confluent CHO-pgsA were treated with 3 μM polyR for one hour prior to adding HPV16 PsVs. Infection was scored at 24 hours post infection as described in FIG. 1. (C) Semi-confluent CHO-pgsD cells were treated with 3 μM polyR for one hour prior to adding HPV16 PsVs. Infection was scored at 24 hours post infection as described in FIG. 1.
(§2) To test the effects of polyR on cells that differentially express heparan sulfate versus heparan sulfonated proteoglycans, like glycosaminoglycans (GAGs), genetically mutant clones of Chinese hamster ovary (CHO) cell lines were used. […] First, the effect of polyR on HPV16 PsV binding to these mutant cells was measured.
For orientation: In western blotting, separated proteins are transferred to a membrane and probed.

Assay [2] has as its system HPV16 pseudovirions (PsVs). Kind of assay: HPV16 PsV luciferase infectivity assay, HaCaT cells pretreated with peptide. The following applies: 24 h.
Procedure: HaCaT cells were cultured in complete growing medium (CM; Dulbecco's modified Eagle's medium nutrient mixture F-12 HAM (Sigma-Aldrich, St. Louis, Mo.)) supplemented with 10% fetal bovine serum (FBS), amino acids (Sigma-Aldrich, St. Louis, Mo.), 2 mM L-glutamine, 100 U/ml penicillin and 1 μg/ml streptomycin (Sigma-Aldrich, St. Louis, Mo.), as previously described (Patterson et al., 2005. J Virol 79:6838-6847). Semi-confluent cells were pretreated for 30 minutes with arginine-rich peptides dissolved in CM (6 μM gp91dstat, gp91dstat (scramble), R9, and TAT, or 3 polyR) before the exposure to HaCaT cells and 300 vge/cell HPV16 pseudovirions (PsVs) packaging a luciferase reporter plasmid. Infectivity was scored after 24 hours of incubation at 37° C. (i.e., post infection) by Lumat LB9501 (Berthold Technologies GmbH & Co KG, Bad Wildbad, Germany) equipment, using the luciferase assay kit (Promega, Madison, Wis.) according to manufacturer's specification. Raw data were normalized to total cellular protein concentration. Graph summarizes triplicate treatments; error bars represent SEM.
Fifty percent inhibitory concentration (IC50) of HPV16 PsV infection of HaCaT cells by the compounds. For generation of an inhibitory concentration 50 (IC50) curves, cells were pretreated with the indicated concentration of arginine-rich peptides prior to HPV16 PsV exposure. Infectivity was scored after 24 hours of incubation at 37° C. and the data from two independent duplicate experiments were pooled and analyzed using non-linear regression (curve fit) function of PRISM software (GraphPad Software, Inc., LaJolla, Calif.).
Semi-confluent HaCaT cells maintained in CM, were pretreated for one hour with PrS dissolved in CM at the 0-5.8 μM concentrations before exposure to HPV16 PsVs (350 vge/cell). Infectivity was scored after 24 hours of incubation at 37° C. using a luminometer (Lumat LB9501, Berthold GmbH & Co., Bad Wildbad, Germany) and luciferase assay (Promega, Madison, Wis.) according to manufacturer's specification. Raw data were normalized to total cellular protein concentration.
For generation of an inhibitory concentration 50 (IC50) curve for PrS inhibition, data from two independent duplicate experiments was pooled and analyzed using the non-linear regression (curve fit) function of PRISM (GraphPad Software, Inc., La Jolla, Calif.).
3 μM PrS incubated for one hour at room temperature with 2 mg/ml high or low molecular weight HA in CM, prior to the addition to HaCaT cells. 350 vge/cell HPV16 PsVs were used for infection of cells in the presence or absence of PrS or HA:PrS complex. Infection was scored after 24 hours as described in FIG. 12.
HaCaT cells were pretreated with 6 μM concentrations of gp91dstat, gp91dstat (scramble), R9, or TAT, or 3 μM polyR. After 30 minutes of incubation at 37° C., cells were infected with HPV16 pseudovirions (PsVs) at a dose of 300 viral genome equivalents (vge)/cell, and the relative infectivity was quantified after 24 hours compared to infection in untreated cells (FIG. 1). Each treatment was performed in triplicate.
To evaluate the anti-HPV activity of PrS, HaCaT cells, a keratinocyte-derived cell line, was used as a model for analysis of HPV infection. […]
Infections were initiated using Luciferase-expressing HPV16 PsVs that were produced, isolated, and quantified as described previously (Surviladze et al., 2012. PLoS Pathogens 8: e1002519; Campos S K and Ozbun M A, 2009. PloS One 4:e4463). […]
Assay [3] deals with HPV16 PsVs. The experiment in a line: Dissociation of cell-bound HPV16 PsVs from HaCaT cells (L1 immunoblot). The following applies: 3 μM added to HPV-bound HaCaT cells, 1 h 4° C. As for the experimental part:
(A) HPV16 PsVs were bound to HaCaT cells (one hour at 4° C.), before the addition of […]. After a one-hour incubation at 4° C., unbound virus was washed out, cells were lysed and analyzed for the content of HPV L1 protein. (B) HaCaT cells were exposed to HPV 16 PsV at 4° C. in the absence of polyR, simultaneously with polyR (0 h), or one hour after polyR treatment (+1 h). After extensive washing with PBS, cells were lysed and analyzed for the content of HPV16 L1 protein.
FIG. 19. […] HPV16 PsVs were bound to HaCaT cells (one hour in cold), before the addition of 5 μM PrS. After a one-hour incubation at 4° C., unbound virus was washed out, cells were lysed, and HPV L1 protein content was measured as described in FIG. 16.
To determine whether polyR could cause HPV16 dissociation from cells, HPV16 PsVs were bound to HaCaT cells for one hour at 4° C. After washing away unbound virus, HPV-bound cells were incubated with 3 μM polyR for one hour at 4° C.; control cells were untreated. Cells were lysed and analyzed for HPV L1 protein content. […]
The post-attachment inhibitory effects of PrS could be due the displacement of capsids from the cell surface. […] After a one-hour incubation at 4° C., unbound virus was washed out, cells were lysed, and the HPV L1 protein content was analyzed.

Assay [4] concerns HPV16 PsVs. The experiment in a line: HPV16 PsV infection of CHO mutant cells. The conditions noted are these: 3 μM, 1 h pre-treatment, 24 h. As for the experimental part: as §1, §2
Assay [5] has as its system HPV16 PsVs. The experiment in a line: Internalization of cell-bound HPV16 PsV into HaCaT cells (L1 immunoblot). The following applies: HPV-bound HaCaT cells incubated 4 h. As for the experimental part: FIG. 8. PolyR reduces the internalization of cell membrane-bound HPV16 PsV. HaCaT cells were incubated with HPV16 PsVs for one hour at 4° C. Unbound virus was removed from the cells by incubation with 0.25% trypsin/5 mM EDTA for 15 minutes at 37° C. Cells were pelleted and washed several times with CM (to neutralize pH) and with ice-cold PBS before adding ice-cold 0.1 M sodium acetate buffer (pH 4.5) containing 0.5 M NaCl. After a two-minute incubation on ice, cells were washed three times with PBS and lysed with RIPA [50 mM Tris (pH 7.5), 0.1% SDS, 1% sodium deoxycholate, 150 mM NaCl, 1 mM EDTA, 1% Triton X-100, 1 mM sodium vanadate, 1 mM PMSF, 10 ng/ml leupeptin, 10 ng/ml aprotinin] buffer. Immuno-blotting was performed, and the L1 protein was detected using a HPV16 L1-specific mAb (Camvir-1, sc-47699, Santa Cruz Biotechnology, Inc., Dallas, Tex.).
To investigate the effect of polyR on the penetration of cell-bound virus into host cells, HPV-bound cells were incubated for four hours in the absence or presence of polyR. […] Immuno-blotting was performed, and the L1 protein was detected using a HPV16 L1 specific mAb (Camvir-1; Santa Cruz Biotechnology, Inc., Dallas, Tex.). As HPV16 L1 is proteolytically processed during cell entry, two forms of L1 (full-length 55 kDa and the 25 kDa processed form) were detected. […]

“Also recorded” adds a separate entry of the source.

With poly-L-arginine [polyR], the “HPV16 PsV binding” value is on record as “did not prevent HPV binding; also recorded: increased binding was observed” in the assay with HPV16 PsVs [1] (CHO pgsA-745 cells (GAG deficient)) and “did not prevent HPV binding” with HPV16 PsVs [1] (CHO pgsD-677 cells (HS deficient)). In assay [2] (3 μM, 30 min pretreatment of HaCaT cells, 300 vge/cell), the “inhibition of HPV16 PsV infection” value was > 98%. The half-inhibitory concentration (IC50) in assay [2] (pretreatment before PsV exposure, two independent duplicate experiments, read-out: IC50 of HPV16 PsV infection of HaCaT cells) was found to be 19 nM. Further, in the assay on HPV16 PsVs [3], the “release of HPV16 from cell membrane” value is “did not induce the release of HPV16 from the cell membrane”. Moreover, the “reduction of HPV16 infection” value turned out to be 63% in the assay on HPV16 PsVs [4] (CHO pgsA-745 cells) and 92% with HPV16 PsVs [4] (CHO pgsD-677 cells). For the same substance, the “internalized L1 forms (55 kDa full-length, 25 kDa processed)” value in the assay on HPV16 PsVs [5] was “decreased levels of 55 kDa L1 protein and increased amounts of the 25 kDa proteolytic processed L1 form”. The “virus internalization rate (sum of IDVs of 55 kDa and 25 kDa L1 bands)” value with HPV16 PsVs [5] was “had no effect on the virus internalization rate”.

The term IC50 denotes the concentration that inhibits the measured activity by half.
